Literature values as cited in patent US20100143470A1, “CONTROLLED RELEASE PHARMACEUTICAL COMPOSITION CONTAINING THIAZIDES AND ANGIOTENSIN-II-RECEPTOR BLOCKERS” (HANALL PHARMACEUTICAL COMPANY, LTD, priority 2006, published 2010).

Tests used:
[1] = orally administered for hypertension therapy

Row | blood half-time (in vivo) [h] | time to reach the highest blood concentration (after absorption from the small intestine) [h] | blood elimination rate (in vivo) [mL/min] | Structure (SMILES) | diuretic effect is sustained [1] [h]
1 | 5.6 to 14.8 |  |  | NS(=O)(=O)c1cc2c(cc1Cl)NCNS2(=O)=O [Hydrochlorothiazide, 6-chloro-3,4-dihydro-2H-1,2,4-benzothiadiazine-7-sulfonamide-1,1-dioxide] | 6 to 12
2 |  | ≤ 1 | 600 | CCCCc1nc(Cl)c(CO)n1Cc1ccc(-c2ccccc2-c2nn[nH]n2)cc1 [losartan] | 
